The numbers were not newly measured in patent US20160174564A1, “BIOCIDE-FREE PREWETTED SPONGE CLOTH” (Kalle GmbH, priority 2014, published 2016), which cites them from elsewhere.

The conditions of the data set: saturated solutions of different salts; 20° C.
Regarding `[Cl-].[K+]` [KCl], the aw value was 0.843.
As for `[Cl-].[Li+]` [LiCl], the aw value is listed as 0.112.
Regarding `O=[N+]([O-])[O-].O=[N+]([O-])[O-].[Mg+2]` [Mg(NO3)2], the aw value is 0.529.
As to `[Cl-].[Cl-].[Mg+2]` [MgCl2], the aw value was 0.327.
Take `[Br-].[Na+]` [NaBr]: the aw value was 0.577.
Regarding `[Cl-].[Na+]` [NaCl], the aw value was 0.753.
As for `O=C([O-])[O-].[K+].[K+]` [Sample K2CO3, K2CO3], the aw value was 0.438.
`[Cl-].[Cl-].[Sr+2]` [SrCl2]: the aw value is 0.708.
